{"source": "ChEMBL document CHEMBL1153618", "about": "“Discovery of potential new InhA direct inhibitors based on pharmacophore and 3D-QSAR analysis followed by in silico screening” (Eur J Med Chem, 2009)", "data": [{"target": "T1, Enoyl-[acyl-carrier-protein] reductase [NADH] (Mycobacterium tuberculosis, UniProt P9WGR1)", "T1 sequence (P9WGR1 whole entry)": "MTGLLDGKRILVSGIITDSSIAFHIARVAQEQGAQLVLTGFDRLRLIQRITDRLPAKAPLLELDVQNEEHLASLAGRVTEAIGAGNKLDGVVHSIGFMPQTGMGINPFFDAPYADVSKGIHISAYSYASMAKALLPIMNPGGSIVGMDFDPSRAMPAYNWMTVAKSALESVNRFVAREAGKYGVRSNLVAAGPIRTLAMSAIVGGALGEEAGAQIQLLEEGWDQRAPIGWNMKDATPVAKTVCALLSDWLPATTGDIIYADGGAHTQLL", "assay": "Inhibition of Mycobacterium tuberculosis InhA", "units": {"IC50": "µM"}, "values": [{"smiles": "COc1ccc(OC)c(/C=N/NC2=CS(=O)(=O)c3ccccc32)c1", "IC50": 5.13}, {"smiles": "COc1ccc(/C=C2\\SC(N3CCCCCC3)NC2=O)cc1OC", "note": "(stereo not given)", "IC50": 11}, {"smiles": "COc1cc(Cl)ccc1NC(=O)c1ccc(C)c([N+](=O)[O-])c1", "IC50": 5.01}, {"smiles": "Cc1cc(Cl)ccc1OCC(=O)Nc1cccc([N+](=O)[O-])c1C", "IC50": 3.47}, {"smiles": "Cc1ccc(OC(=O)c2ccccc2[N+](=O)[O-])c(Br)c1", "IC50": 9.55}, {"smiles": "COc1ccc(Cl)cc1NC(=O)c1ccc(OC)c([N+](=O)[O-])c1", "IC50": 5.01}, {"smiles": "COc1ccc(Cl)cc1NC(=O)c1ccc(Cl)c([N+](=O)[O-])c1", "IC50": 4.07}, {"smiles": "CCN(CC)c1ccc(/C=C2/SC(N3CCCCC3)=NC2=O)cc1", "IC50": 6.17}, {"smiles": "Cc1ccc(NC(=O)c2sc3ccccc3c2Cl)cc1[N+](=O)[O-]", "IC50": 2.14}, {"smiles": "Cc1ccc(C(=O)Nc2ccc(Cl)cc2Cl)cc1[N+](=O)[O-]", "IC50": 8.71}, {"smiles": "CCN(CC)c1ccc(NC(=O)c2ccccc2[N+](=O)[O-])cc1", "IC50": 4.37}, {"smiles": "O=[N+]([O-])c1cc(/N=C/c2ccc(Cl)cc2Cl)ccc1Cl", "IC50": 4.68}, {"smiles": "CCOC(=O)C1=C(C)N/C(=C/c2cc(OC)ccc2OC)C1=O", "IC50": 3.63}, {"smiles": "COc1ccc(/C=C2/SC(N3CCC(C)CC3)=NC2=O)cc1OC", "IC50": 10.7}, {"smiles": "COc1ccc(C(=O)Nc2cc(Cl)ccc2Cl)cc1[N+](=O)[O-]", "IC50": 13.8}, {"smiles": "O=C(Nc1ccc(Cl)cc1Cl)c1ccccc1[N+](=O)[O-]", "IC50": 20}, {"smiles": "CCN(CC)c1ccc(/C=C2/N=C(c3ccccc3)OC2=O)cc1", "IC50": 3.31}, {"smiles": "COc1cc(NC(=O)c2ccc(C)cc2[N+](=O)[O-])cc(OC)c1", "IC50": 1.35}, {"smiles": "O=C1N=C(Nc2cc(Cl)cc(Cl)c2)S/C1=C/c1ccco1", "IC50": 17.8}, {"smiles": "Cc1ccc(NC(=O)c2ccccc2[N+](=O)[O-])c(C)c1", "IC50": 10.5}, {"smiles": "O=C(Nc1cc(Cl)ccc1Cl)c1ccc(Cl)c([N+](=O)[O-])c1", "IC50": 20}, {"smiles": "O=C(Nc1ccc(Cl)c(Cl)c1)c1ccc(Cl)c([N+](=O)[O-])c1", "IC50": 52.5}, {"smiles": "COc1cc(Cl)cc(/C=C2/SC(c3ccccc3)=NC2=O)c1O", "IC50": 10.5}, {"smiles": "COc1ccc(C(=O)Nc2cc(Cl)cc(Cl)c2)cc1[N+](=O)[O-]", "IC50": 7.08}, {"smiles": "COc1ccc(/C=C2/SC(N3CCCCC3)=NC2=O)cc1OC", "IC50": 11.5}, {"smiles": "O=C(Nc1cc(Cl)cc(Cl)c1)c1ccccc1[N+](=O)[O-]", "IC50": 6.17}, {"smiles": "COC(=O)c1c(NC(=O)c2ccccc2[N+](=O)[O-])sc2c1CCC2", "IC50": 1.82}, {"smiles": "CCOc1ccc(/C=C2/SC(c3ccccc3)=NC2=O)cc1C", "IC50": 10}, {"smiles": "O=C(Nc1cc(Cl)c(Cl)cc1Cl)c1ccccc1[N+](=O)[O-]", "IC50": 12}, {"smiles": "COc1ccc(/C=C2/SC(N3CCCC3)=NC2=O)cc1OC", "IC50": 7.24}]}]}
